Results reported in patent US9107411B2, “Indolecarboxamides and benzimidazolecarboxamides as insecticides and acaricides” (BAYER INTELLECTUAL PROPERTY GMBH, priority 2011, dated 2015).
Each block holds one compound with its values, some of them ahead of it.

Columns and labels:
Amblyomma hebraeum = experiment: Amblyomma hebaraeum test (AMBYHE); assay type: in vivo; settings: application rate 100 ppm; tick nymphs immersed one minute; after 42 days
Method: Amblyomma hebaraeum Test (AMBYHE) Solvent: dimethyl sulphoxide To prepare an appropriate active ingredient formulation, 10 mg of active ingredient are mixed with 0.5 ml of dimethyl sulphoxide and the concentrate is diluted with water to the desired concentration. Tick nymphs (Amblyomma hebraeum) are placed into perforated plastic beakers and immersed in the desired concentration for one minute. The ticks are transferred on filter paper into a Petri dish and stored in a climate-controlled cabinet. After 42 days, the kill in % is determined 100% means that all of the ticks have been killed; 0% means that none of the ticks have been killed.

logP (HPLC-MS) = assay type: physicochemical; settings: HPLC, reversed-phase column (C18), 43° C.
adult Musca domestica = experiment: Musca domestica test (MUSCDO); assay type: in vivo; settings: application rate 100 ppm; treated sponge; after 2 days
Outline: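 After 2 days' exposure to a treated sponge, adult house fly mortality was recorded as kill %. Formulation: active ingredient in dimethyl sulphoxide, then water dilution to the test concentration.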

Boophilus microplus = Boophilus microplus test (BOOPMI injection); assay type: in vivo; settings: application rate 20 μg/animal; injected into the abdomen; after 7 days
Outline: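 Read-out after 7 days is % efficacy, judged by fertile egg laying, with 100% meaning no fertile eggs from any tick. Compound was given by abdominal injection as a DMSO solution diluted to the desired concentration. Treated ticks were held in dishes in a climate-controlled room.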

Ctenocephalides felis = Ctenocephalides felis oral (CTECFE); assay type: in vivo; settings: application rate 100 ppm in citrated cattle blood; after 2 days
Outline: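 Readout is percent mortality after 2 days (0–100%) in roughly 20 unfed adult fleas. The fleas had imbibed citrated cattle blood dosed with compound through Parafilm, with the compound diluted from a DMSO concentrate.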

Phaedon cochleariae = experiment: Phaedon test (PHAECO spray treatment); assay type: in vivo; settings: Chinese cabbage leaf discs, after 7 days
Outline: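 Larval mortality was assessed 7 days after Phaedon cochleariae larvae were placed on dried, spray-treated Brassica pekinensis leaf discs. The formulation was an acetone/dimethylformamide concentrate with alkylaryl polyglycol ether emulsifier, diluted in emulsifier-containing water. Results are given as % kill, from 0 (no larvae dead) to 100 (all dead).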

Lucilia cuprina larvae = experiment: Lucilia cuprina test (LUCICU); assay type: in vivo; settings: application rate 100 ppm; treated horse meat; after 2 days
Outline: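 Mortality scored as percent of larvae killed 2 days after exposure. Horse meat was treated with the compound, formulated from DMSO stock diluted with water to the test concentration, and populated with roughly 20 larvae.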

Tetranychus urticae = experiment: Tetranychus test, OP-resistant (TETRUR spray treatment); assay type: in vivo; settings: bean leaf discs, after 6 days
Outline: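 Bean leaf discs infested with all stages of OP-resistant T. urticae sprayed with compound formulated in acetone/DMF plus alkylaryl polyglycol ether emulsifier, diluted in water. Efficacy (% mites killed) scored after 6 days.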

Spodoptera frugiperda = Spodoptera frugiperda test (SPODFR spray treatment); assay type: in vivo; settings: maize leaf discs, after 7 days
Outline: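 Mortality read-out at 7 days, given as % efficacy, where 100% means every caterpillar dead and 0% none. Caterpillars were placed on dried maize leaf discs that had been sprayed with test formulation. That formulation was an acetone/dimethylformamide concentrate diluted in emulsifier-containing water.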

[1] = system: adult engorged Boophilus microplus females of the SP-resistant Parkhurst strain; experiment: Boophilus microplus test (DIP); assay type: in vivo; settings: application rate 100 ppm, after 7 days
Method: Boophilus microplus Test (DIP)
Test animals: adult engorged Boophilus microplus females of the SP-resistant Parkhurst strain
Solvent: dimethyl sulphoxide
10 mg of active ingredient are dissolved in 0.5 ml of dimethyl sulphoxide. For the purpose of preparing a suitable formulation, the active ingredient solution is diluted with water to the concentration desired in each case.
This active ingredient formulation is pipetted into tubes. 8-10 ticks are transferred into a further tube with holes. The tube is immersed into the active ingredient formulation, and all ticks are completely wetted. After the liquid has run out, the ticks are transferred onto filter discs in plastic dishes and stored in a climate-controlled room.
The activity is assessed after 7 days by laying of fertile eggs. Eggs whose fertility is not outwardly visible are stored in glass tubes in a climate-controlled cabinet until the larvae hatch. An efficacy of 100% means that none of the ticks has laid any fertile eggs.

Myzus persicae = experiment: Myzus test (MYZUPE spray treatment); assay type: in vivo; settings: application rate 100 g/ha; Chinese cabbage leaf discs; after 6 days
Method: Myzus Test (MYZUPE Spray Treatment) Solvent: 78 parts by weight of acetone • • 1.5 parts by weight of dimethylformamide Emulsifier: 0.5 part by weight of alkylaryl polyglycol ether To produce an appropriate active ingredient formulation, 1 part by weight of active ingredient is mixed with the stated amounts of solvent and emulsifier, and the concentrate is diluted with emulsifier-containing water to the desired concentration. Leaf discs of Chinese cabbage (Brassica pekinensis) infested by all stages of the green peach aphid (Myzus persicae) are sprayed with an active ingredient formulation of the desired concentration. After 6 days, the efficacy in % is determined. 100% means that all of the aphids have been killed; 0% means that none of the aphids have been killed.

[2] = acidic range pH 2.7, acetonitrile (0.1% formic acid)/water gradient, calibration with unbranched alkan-2-ones

log p (logP (HPLC-MS); [2]): 3.52
Compound: C#CCn1c(C(=O)NC(c2ccc(F)c(Br)c2)C(F)(F)F)cc2cc(C(=O)NC3CC3)c(Cl)cc21 (stereo not drawn) [Compound 14]
efficacy (kill in %) (Amblyomma hebraeum): 100% | efficacy (kill in %) (adult Musca domestica): 100% | efficacy (laying of fertile eggs) (Boophilus microplus): 100% | efficacy (kill in %) (Ctenocephalides felis): 100% | efficacy in % (Phaedon cochleariae; application rate 500 g/ha): 100% | efficacy (kill in %) (Lucilia cuprina larvae): 100% | efficacy in % (Tetranychus urticae; application rate 500 g/ha): 100% | efficacy in % (Spodoptera frugiperda; application rate 500 g/ha): 100%

log p (logP (HPLC-MS); [2]): 3.82
Compound: CCn1c(C(=O)NC(c2ccc(F)c(Cl)c2)C(F)(F)F)cc2cc(C(=O)NC3CC3)c(Cl)cc21 (stereo not drawn) [Compound 18]
efficacy (kill in %) (adult Musca domestica): 100% | efficacy (laying of fertile eggs) (Boophilus microplus): 100% | efficacy (kill in %) (Ctenocephalides felis): 100% | efficacy (laying of fertile eggs) [1]: 80% | efficacy in % (Phaedon cochleariae; application rate 100 g/ha): 100% | efficacy (kill in %) (Lucilia cuprina larvae): 100% | efficacy in % (Tetranychus urticae; application rate 100 g/ha): 90% | efficacy in % (Spodoptera frugiperda; application rate 100 g/ha): 100%

log p (logP (HPLC-MS); [2]): 3.62
Compound: C#CCn1c(C(=O)NC(c2ccc(F)c(C(F)(F)F)c2)C(F)(F)F)nc2cc(C(=O)NC3CC3)c(Cl)cc21 (stereo not drawn) [Compound 97]
efficacy in % (Myzus persicae): 100% | efficacy (kill in %) (adult Musca domestica): 100% | efficacy (laying of fertile eggs) (Boophilus microplus): 100% | efficacy (kill in %) (Ctenocephalides felis): 95% | efficacy in % (Phaedon cochleariae; application rate 500 g/ha): 100% | efficacy (kill in %) (Lucilia cuprina larvae): 100% | efficacy in % (Tetranychus urticae; application rate 500 g/ha): 100% | efficacy in % (Spodoptera frugiperda; application rate 500 g/ha): 100%

log p (logP (HPLC-MS); [2]): 3.71
Compound: CCn1c(C(=O)NC(c2ccc(F)c(Br)c2)C(F)(F)F)cc2cc(C(=O)NC3(C#N)CC3)c(C)cc21 (stereo not drawn) [Compound 191]
efficacy in % (Myzus persicae): 90% | efficacy (kill in %) (adult Musca domestica): 90% | efficacy (laying of fertile eggs) (Boophilus microplus): 100% | efficacy (kill in %) (Ctenocephalides felis): 100% | efficacy in % (Phaedon cochleariae; application rate 100 g/ha): 100% | efficacy (kill in %) (Lucilia cuprina larvae): 100% | efficacy in % (Tetranychus urticae; application rate 100 g/ha): 100% | efficacy in % (Spodoptera frugiperda; application rate 100 g/ha): 100%

log p (logP (HPLC-MS); [2]): 3.65
Compound: CCn1c(C(=O)NC(c2ccc(F)c(Cl)c2)C(F)(F)F)cc2cc(C(=O)NC3CC3)c(C)cc21 (stereo not drawn) [Compound 192]
efficacy in % (Myzus persicae): 90% | efficacy (kill in %) (adult Musca domestica): 100% | efficacy (laying of fertile eggs) (Boophilus microplus): 100% | efficacy (kill in %) (Ctenocephalides felis): 100% | efficacy in % (Phaedon cochleariae; application rate 100 g/ha): 100% | efficacy (kill in %) (Lucilia cuprina larvae): 100% | efficacy in % (Tetranychus urticae; application rate 100 g/ha): 100% | efficacy in % (Spodoptera frugiperda; application rate 100 g/ha): 100%

log p (logP (HPLC-MS); [2]): 3.48
Compound: CCn1c(C(=O)NC(c2cccc(OC(F)F)c2)C(F)(F)F)cc2cc(C(=O)NC3CC3)c(Cl)cc21 (stereo not drawn) [Compound 276]
efficacy in % (Myzus persicae): 90% | efficacy (kill in %) (adult Musca domestica): 100% | efficacy (laying of fertile eggs) (Boophilus microplus): 100% | efficacy (kill in %) (Ctenocephalides felis): 100% | efficacy in % (Phaedon cochleariae; application rate 100 g/ha): 100% | efficacy (kill in %) (Lucilia cuprina larvae): 100% | efficacy in % (Tetranychus urticae; application rate 100 g/ha): 90% | efficacy in % (Spodoptera frugiperda; application rate 100 g/ha): 100%

log p (logP (HPLC-MS); acidic range pH 2.7, EEC directive 79/831 Annex V.A8, two values = both regioisomers (G = N)): 3.98
Compound: CCc1cc2c(cc1C(=O)NC1(C#N)CC1)cc(C(=O)NC(c1cccc(C(F)(F)F)c1)C(F)(F)F)n2CC (stereo not drawn) [Compound 282]
efficacy in % (Myzus persicae): 80% | efficacy (kill in %) (adult Musca domestica): 90% | efficacy (laying of fertile eggs) (Boophilus microplus): 100% | efficacy (kill in %) (Ctenocephalides felis): 100% | efficacy in % (Phaedon cochleariae; application rate 100 g/ha): 100% | efficacy (kill in %) (Lucilia cuprina larvae): 100% | efficacy in % (Tetranychus urticae; application rate 100 g/ha): 100% | efficacy in % (Spodoptera frugiperda; application rate 100 g/ha): 100%
